This is an account of results in ChEMBL document CHEMBL1153577, “2D- and 3D-QSAR studies on 54 anti-tumor Rubiaceae-type cyclopeptides” (Eur J Med Chem, 2009).

The assay relates to P388. The assay can be described thus: Cytotoxicity against mouse P388 cell. In kind it is functional, cell-based. The settings on record: Mus musculus, P388.

The IC50 is the concentration that gives 50% inhibition. In turn, `COc1ccc(C[C@H]2C(=O)N[C@@H](C)C(=O)N(C)[C@H]3Cc4ccc(c(O)c4)Oc4cc(ccc4OC)C[C@@H](C(=O)N[C@H](C)C(=O)N[C@@H](C)C(=O)N2C)N(C)C3=O)cc1` (stereo in doubt; 39) had a half-inhibitory concentration (IC50) of 4.79 µM.
